Measurements taken from patent publication US9695155B2, “Herbicidal substituted pyrimidinyloxy benzene compounds” (E. I. DU PONT DE NEMOURS AND COMPANY, priority 2013, dated 2017).

Key:
pigweed [1] = assay: Test A preemergence; assay type: in vivo, Amaranthus retroflexus
How it was run: (§1)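 Visual injury scored 0–100 (100 = complete control) against untreated controls about 10 days after treatment in a greenhouse. Test chemicals, formulated with surfactant in non-phytotoxic solvent, were sprayed on soil preemergence or on 2-10 cm, one- to two-leaf plants postemergence.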

rice [2] = assay: Test C flooded paddy test; assay type: in vivo, Oryza sativa; details: Flood, scale 0 to 100 (0 no effect, 100 complete control), 13 to 15 days
From the text: (§2) At time of treatment, test pots were flooded to 3 cm above the soil surface, treated by application of test compounds directly to the paddy water, and then maintained at that water depth for the duration of the test. Treated plants and controls were maintained in a greenhouse for 13 to 15 days, after which time all species were compared to controls and visually evaluated. […] A dash (-) response means no test result.

barnyardgrass [3] = assay: Test A postemergence; assay type: in vivo, Echinochloa crus-galli
How it was run: as §1

sedge, umbrella [4] = assay: Test B flooded paddy test; assay type: in vivo, Cyperus difformis; details: Flood, 250 g ai/ha, 0 to 100 scale where 0 is no effect and 100 is complete control
How it was run: (§3)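 2-leaf stage plants; pots flooded to 3 cm, compound added to paddy water, depth maintained. Greenhouse 13–15 d. Visual rating vs untreated controls, 0 (no effect) to 100 (complete control); dash = no result.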

Heteranthera limosa = assay: Test B flooded paddy test; assay type: in vivo; details: Flood, 250 g ai/ha, 0 to 100 scale where 0 is no effect and 100 is complete control
How it was run: as §3

barnyardgrass [5] = assay: Test B flooded paddy test; assay type: in vivo, Echinochloa crus-galli; details: Flood, 250 g ai/ha, 0 to 100 scale where 0 is no effect and 100 is complete control
How it was run: as §3

morningglory [6] = assay: Test A preemergence; assay type: in vivo, Ipomoea spp.
How it was run: as §1

corn [7] = assay: Test A postemergence; assay type: in vivo, Zea mays
How it was run: as §1

giant foxtail [8] = assay: Test A postemergence; assay type: in vivo, Setaria faberii
How it was run: as §1

ducksalad = assay: Test C flooded paddy test; assay type: in vivo, Heteranthera limosa; details: Flood, scale 0 to 100 (0 no effect, 100 complete control), 13 to 15 days
From the text: as §2

velvetleaf [9] = assay: Test A postemergence; assay type: in vivo, Abutilon theophrasti
How it was run: as §1

giant foxtail [10] = assay: Test A preemergence; assay type: in vivo, Setaria faberii
How it was run: as §1

corn [11] = assay: Test A preemergence; assay type: in vivo, Zea mays
How it was run: as §1

large (Lg) crabgrass [12] = assay: Test A preemergence; assay type: in vivo, Digitaria sanguinalis
How it was run: as §1

sedge, umbrella [13] = assay: Test C flooded paddy test; assay type: in vivo, Cyperus difformis; details: Flood, scale 0 to 100 (0 no effect, 100 complete control), 13 to 15 days
From the text: as §2

velvetleaf [14] = assay: Test A preemergence; assay type: in vivo, Abutilon theophrasti
How it was run: as §1

morningglory [15] = assay: Test A postemergence; assay type: in vivo, Ipomoea spp.
How it was run: as §1

wheat [16] = assay: Test A preemergence; assay type: in vivo, Triticum aestivum
How it was run: as §1

pigweed [17] = assay: Test A postemergence; assay type: in vivo, Amaranthus retroflexus
How it was run: as §1

barnyardgrass [18] = assay: Test C flooded paddy test; assay type: in vivo, Echinochloa crus-galli; details: Flood, scale 0 to 100 (0 no effect, 100 complete control), 13 to 15 days
From the text: as §2

large (Lg) crabgrass [19] = assay: Test A postemergence; assay type: in vivo, Digitaria sanguinalis
How it was run: as §1

barnyardgrass [20] = assay: Test A preemergence; assay type: in vivo, Echinochloa crus-galli
How it was run: as §1

rice [21] = assay: Test B flooded paddy test; assay type: in vivo, Oryza sativa; details: Flood, 250 g ai/ha, 0 to 100 scale where 0 is no effect and 100 is complete control
How it was run: as §3

wheat [22] = assay: Test A postemergence; assay type: in vivo, Triticum aestivum
How it was run: as §1

Italian ryegrass [23] = assay: Test A preemergence; assay type: in vivo, Lolium multiflorum; details: 1000 g ai/ha, 0 to 100 scale, 0 no effect, 100 complete control, approx. 10 days
How it was run: as §1

Italian ryegrass [24] = assay: Test A postemergence; assay type: in vivo, Lolium multiflorum; details: 1000 g ai/ha, 0 to 100 scale, 0 no effect, 100 complete control
How it was run: as §1

blackgrass = assay: Test A postemergence; assay type: in vivo, Alopecurus myosuroides; details: 1000 g ai/ha, 0 to 100 scale, 0 no effect, 100 complete control
How it was run: as §1

kochia [25] = assay: Test A preemergence; assay type: in vivo, Kochia scoparia; details: 1000 g ai/ha, 0 to 100 scale, 0 no effect, 100 complete control, approx. 10 days
How it was run: as §1

galium = assay: Test A postemergence; assay type: in vivo, Galium aparine; details: 1000 g ai/ha, 0 to 100 scale, 0 no effect, 100 complete control
How it was run: as §1

ragweed [26] = assay: Test A postemergence; assay type: in vivo, Ambrosia elatior; details: 1000 g ai/ha, 0 to 100 scale, 0 no effect, 100 complete control
How it was run: as §1

kochia [27] = assay: Test A postemergence; assay type: in vivo, Kochia scoparia; details: 1000 g ai/ha, 0 to 100 scale, 0 no effect, 100 complete control
How it was run: as §1

ragweed [28] = assay: Test A preemergence; assay type: in vivo, Ambrosia elatior; details: 1000 g ai/ha, 0 to 100 scale, 0 no effect, 100 complete control, approx. 10 days
How it was run: as §1

[29] = 125 g ai/ha, 0 to 100 scale where 0 is no effect and 100 is complete control
[30] = 500 g ai/ha, 0 to 100 scale, 0 no effect, 100 complete control, approx. 10 days
[31] = 500 g ai/ha, 0 to 100 scale, 0 no effect, 100 complete control

Structure (SMILES): Cc1ccc(Oc2ncc(Cl)cn2)c(-n2cc(Br)cn2)c1 [Compound 40]
- Plant response rating, Pigweed (pigweed [1]; [29]): 0
- Pigweed plant response rating (pigweed [1]; [30]): 50
- Plant response rating, Rice (rice [2]; 31 g ai/ha): 0
- Plant response rating, Rice (rice [2]; 62 g ai/ha): 0
- Plant response rating, Rice (rice [2]; 125 g ai/ha): 0
- Plant response rating, Rice (rice [2]; 250 g ai/ha): 0
- Plant response rating, Barnyardgrass (barnyardgrass [3]; [29]): 0
- Plant response rating, Barnyardgrass (barnyardgrass [3]; [31]): 20
- Plant response rating, Sedge, Umbrella (sedge, umbrella [4]): 80
- Plant response rating, Ducksalad (Heteranthera limosa): 80
- Plant response rating, Barnyardgrass (barnyardgrass [5]): 20
- Plant response rating, Morningglory (morningglory [6]; [29]): 0
- Morningglory plant response rating (morningglory [6]; [30]): 0
- Plant response rating, Corn (corn [7]; [29]): 0
- Plant response rating, Corn (corn [7]; [31]): 0
- Plant response rating, Foxtail, Giant (giant foxtail [8]; [29]): 10
- Plant response rating, Foxtail, Giant (giant foxtail [8]; [31]): 60
- Plant response rating, Ducksalad (ducksalad; 31 g ai/ha): 0
- Plant response rating, Ducksalad (ducksalad; 62 g ai/ha): 0
- Plant response rating, Ducksalad (ducksalad; 125 g ai/ha): 40
- Plant response rating, Ducksalad (ducksalad; 250 g ai/ha): 60
- Plant response rating, Velvetleaf (velvetleaf [9]; [29]): 100
- Plant response rating, Velvetleaf (velvetleaf [9]; [31]): 100
- Plant response rating, Foxtail, Giant (giant foxtail [10]; [29]): 10
- Foxtail, Giant plant response rating (giant foxtail [10]; [30]): 60
- Plant response rating, Corn (corn [11]; [29]): 0
- Corn plant response rating (corn [11]; [30]): 0
- Plant response rating, Crabgrass, Large (large (Lg) crabgrass [12]; [29]): 60
- Crabgrass, Large plant response rating (large (Lg) crabgrass [12]; [30]): 80
- Plant response rating, Sedge, Umbrella (sedge, umbrella [13]; 31 g ai/ha): 50
- Plant response rating, Sedge, Umbrella (sedge, umbrella [13]; 62 g ai/ha): 75
- Plant response rating, Sedge, Umbrella (sedge, umbrella [13]; 125 g ai/ha): 75
- Plant response rating, Sedge, Umbrella (sedge, umbrella [13]; 250 g ai/ha): 75
- Plant response rating, Velvetleaf (velvetleaf [14]; [29]): 50
- Velvetleaf plant response rating (velvetleaf [14]; [30]): 70
- Plant response rating, Morningglory (morningglory [15]; [29]): 70
- Plant response rating, Morningglory (morningglory [15]; [31]): 100
- Plant response rating, Wheat (wheat [16]; [29]): 0
- Wheat plant response rating (wheat [16]; [30]): 0
- Plant response rating, Pigweed (pigweed [17]; [29]): 40
- Plant response rating, Pigweed (pigweed [17]; [31]): 60
- Plant response rating, Barnyardgrass (barnyardgrass [18]; 31 g ai/ha): 0
- Plant response rating, Barnyardgrass (barnyardgrass [18]; 62 g ai/ha): 0
- Plant response rating, Barnyardgrass (barnyardgrass [18]; 125 g ai/ha): 15
- Plant response rating, Barnyardgrass (barnyardgrass [18]; 250 g ai/ha): 15
- Plant response rating, Crabgrass, Large (large (Lg) crabgrass [19]; [29]): 50
- Plant response rating, Crabgrass, Large (large (Lg) crabgrass [19]; [31]): 70
- Plant response rating, Barnyardgrass (barnyardgrass [20]; [29]): 40
- Barnyardgrass plant response rating (barnyardgrass [20]; [30]): 50
- Plant response rating, Rice (rice [21]): 15
- Plant response rating, Wheat (wheat [22]; [29]): 0
- Plant response rating, Wheat (wheat [22]; [31]): 0

Structure (SMILES): FC(F)(F)c1cnn(-c2c(Oc3ncc(Cl)cn3)cccc2-c2nnco2)c1 [Compound 298, 2-[3-[(5-chloro-2-pyrimidinyl)oxy]-2-[4-(trifluoromethyl)-1H-pyrazol-1-yl]phenyl]-1,3,4-oxadiazole]
- pest or weed control at 1000 g/ha (pigweed [1]; Amaranthus retroflexus, pre-emergence, 240 h, 1000 g ai/ha, 0 to 100 scale, 0 no effect, 100 complete control, approx. 10 days, read-out: Pigweed plant response rating): 100%
- pest or weed control at 1000 g/ha (barnyardgrass [3]; Echinochloa crus-galli, post-emergence, 240 h, 1000 g ai/ha, 0 to 100 scale, 0 no effect, 100 complete control, read-out: Plant response rating Barnyardgrass): 90%
- pest or weed control at 250 g/ha (sedge, umbrella [4]; Cyperus difformis, read-out: Plant response rating, Sedge, Umbrella): 30%
- pest or weed control at 250 g/ha (Heteranthera limosa; Heteranthera limosa, read-out: Plant response rating, Ducksalad): 0%
- pest or weed control at 250 g/ha (barnyardgrass [5]; Echinochloa crus-galli, read-out: Plant response rating, Barnyardgrass): 0%
- plant injury at 1000 g/ha (corn [7]; Zea mays, post-emergence, 240 h, 1000 g ai/ha, 0 to 100 scale, 0 no effect, 100 complete control, read-out: Plant response rating Corn): 70%
- Ryegrass, Italian plant response rating (Italian ryegrass [23]): 50
- pest or weed control at 1000 g/ha (giant foxtail [8]; Setaria faberi, post-emergence, 240 h, 1000 g ai/ha, 0 to 100 scale, 0 no effect, 100 complete control, read-out: Plant response rating Foxtail, Giant): 90%
- Plant response rating, Ryegrass, Italian (Italian ryegrass [24]): 70
- pest or weed control at 1000 g/ha (giant foxtail [10]; Setaria faberi, pre-emergence, 240 h, 1000 g ai/ha, 0 to 100 scale, 0 no effect, 100 complete control, approx. 10 days, read-out: Foxtail, Giant plant response rating): 100%
- Plant response rating, Blackgrass (blackgrass): 80
- Kochia plant response rating (kochia [25]): 90
- Plant response rating, Galium (galium): 80
- pest or weed control at 1000 g/ha (pigweed [17]; Amaranthus retroflexus, post-emergence, 240 h, 1000 g ai/ha, 0 to 100 scale, 0 no effect, 100 complete control, read-out: Plant response rating Pigweed): 100%
- pest or weed control at 1000 g/ha (barnyardgrass [20]; Echinochloa crus-galli, pre-emergence, 240 h, 1000 g ai/ha, 0 to 100 scale, 0 no effect, 100 complete control, approx. 10 days, read-out: Barnyardgrass plant response rating): 100%
- plant injury at 250 g/ha (rice [21]; Oryza sativa, read-out: Plant response rating, Rice): 0%
- Plant response rating, Ragweed (ragweed [26]): 90
- Plant response rating, Kochia (kochia [27]): 100
- Ragweed plant response rating (ragweed [28]): 90
- plant injury at 1000 g/ha (wheat [22]; Triticum aestivum, post-emergence, 240 h, 1000 g ai/ha, 0 to 100 scale, 0 no effect, 100 complete control, read-out: Plant response rating Wheat): 40%
